Here are results for 1 compound from US7429482B2, “Screening tools for discovery of novel anabolic agents” (United States of America as represented by the Department …, priority 2005, dated 2008).

Common to all, as to type: in vivo, rat
One assay deals with GADD45. Nature of the assay: Acute denervation: GADD45 mRNA in EDL and soleus (qPCR). Particulars: significant. On the procedure:
(§1) Male Wistar rats weighing 250 gm (Taconic Farms, Germantown, N.Y.) were provided food and water ad libitum and were housed in a temperature and humidity controlled environment providing a 12:12 hour day-night cycle. For surgical procedures, animals were anesthetized with ketamine/xylazine. The left sciatic nerve was exposed by blunt dissection, and a 1 to 2 mm piece of this nerve was excised just below the level of the femoral head. A sham surgery was performed on the right hind limb in which the sciatic nerve was exposed but was not transected. Model 2002 Alzet pumps were implanted subcutaneously on the back. […] A pellet containing 15 mg of testosterone (Innovative Research of America, Sarasota, Fla.) administered as a continuous infusion (5 mg/wk), or a pellet containing placebo, was inserted into a subcutaneous pouch. […]
(§2) Total RNA was extracted from skeletal muscle (20 mg) by homogenization in guanidine thiocyanate using a Polytron followed by extraction using phenol-chloroform (Chomczynski and Sacchi, Anal Biochem 162: 156-159, 1987). […] Total RNA was then eluted and quantified by absorbance at 260 nm. […] Levels of gene expression in the denervated muscle were expressed as fold induction relative to muscle from the sham-denervated leg of animals administered vehicle. […] Fold-induction was determined using the 2^−ΔΔCt method, using expression of 18S RNA as the normalization control. […]
(Real-time PCR tracks product formation cycle by cycle.)

The subject of another assay is IGF-1 receptor (IGF-1R). Nature of the assay: Acute denervation: IGF-1 receptor mRNA in EDL and soleus (qPCR). The procedure: as §1, §2
A further assay deals with IGFBP-2. Nature of the assay: Chronic denervation: IGFBP-2 mRNA in gastrocnemius (qPCR). On the procedure:
as §1, with “200-250” for “250”, “Twenty eight days later, animals were anesthetized, and” for “Model 2002”, “Testosterone levels after replacement were approximately” for “A pellet containing”, “nM, a high-normal range for rats” for “mg”, “this age.” for “testosterone (Innovative Research of America, Sarasota, Fla.) administered as a continuous infusion (5 mg/wk), or a pellet containing placebo, was inserted into a subcutaneous pouch.”
as §2, with “extraction of total RNA with” for “extraction using”, “phenol-chloroform as described by” for “phenol-chloroform”, “was” for “was then”

The subject of the next assay is IGF-1. Nature of the assay: Acute denervation: IGF-1 mRNA in EDL and soleus (qPCR). Particulars: nandrolone 1.5 mg/kg/wk 14 days. The procedure:
Male Wistar rats weighing 250 gm (Taconic Farms, Germantown, N.Y.) were provided food and water ad libitum and were housed in a temperature and humidity controlled environment providing a 12:12 hour day-night cycle. For surgical procedures, animals were anesthetized with ketamine/xylazine. The left sciatic nerve was exposed by blunt dissection, and a 1 to 2 mm piece of this nerve was excised just below the level of the femoral head. A sham surgery was performed on the right hind limb in which the sciatic nerve was exposed but was not transected. Model 2002 Alzet pumps were implanted subcutaneously on the back. […] A pellet containing 15 mg of testosterone (Innovative Research of America, Sarasota, Fla.) administered as a continuous infusion (5 mg/wk), or a pellet containing placebo, was inserted into a subcutaneous pouch. […] Because testosterone is known to have anabolic actions (Ferrando et al., Am J Physiol Endocrinol Metab 282: E601-E607, 2002; Mauras et al., J Clin Endocrinol Metab 83: 1886-1892, 1998; Urban et al., Am J Physiol 269: E820-E826, 1995), reductions in levels of this hormone could affect muscle mass and confound interpretation of the results. Animals were euthanized 14 days later by inhalation of carbon dioxide. […]
as §2

Turning to `C[C@]12CC[C@H]3[C@@H](CCC4=CC(=O)CC[C@@H]43)[C@@H]1CC[C@@H]2O` [nandrolone], in the assay with GADD45 (denervated EDL), the “reduction in GADD45 expression” value came to 21%. Moreover, in the assay on GADD45 (denervated soleus), the “decrease in GADD45 expression” value is on record as 40%. Besides, the IGF-1R expression result is given as “No appreciable effects” with IGF-1 receptor (IGF-1R) (denervated soleus or EDL); “tended to increase” with IGF-1 receptor (IGF-1R) (sham-denervated soleus and EDL, changes not significant). The IGFBP-2 expression entry is recorded as “did not significantly alter” with IGFBP-2 (denervated muscle, any time tested) and “did not appreciably alter” in the assay with IGFBP-2 (sham-denervated muscle). Further, the results for the IGF-1 expression result in the assay with IGF-1 (denervated EDL), with IGF-1 (denervated or sham-denervated soleus) and in the assay with IGF-1 (sham-denervated EDL) were “significantly reduced”, “did not significantly affect” and “significantly reduced”, respectively.
